Reference: patent US20080102497A1, “ENZYMATIC HYDROLYSIS OF STARCH” (priority 2006, published 2008)
Where two headings read alike, the source gives them in different places.

Tests used:
[1] = test system: glucoamylase from Rhizopus sp.; assay: hydrolysis of raw corn starch, reducing sugar by DNSA; assay type: biochemical; settings: for Relative Activity: raw corn starch, pH 5.3, 37° C., 20 min
Description: (§1) The α-amylase from Aspergillus oryzae and the glucoamylase from Rhizopus sp.

[2] = target: α-amylase from Aspergillus oryzae (Aspergillus oryzae, UniProt P0C1B3); assay: as above; assay type: biochemical; settings: for Relative Activity: raw corn starch, pH 5.3, 37° C., 20 min
Description: as §1

[3] = target: α-amylase from Bacillus amyloliquefaciens (Bacillus amyloliquefaciens, UniProt P00692); assay: as above; assay type: biochemical; settings: for Relative Activity: raw corn starch, pH 5.3, 37° C., 20 min
Description: Thereafter, 40 μl of each pre-incubation solution was added to 15 mg raw corn starch, and the reaction mixture incubated at 37° C. for 20 minutes. The control reaction mixture contained substrate, enzyme, and buffer but no manganese ion. The starch hydrolysis reaction was stopped by combining the reaction mixture with a solution containing DNSA and heating for 30 min at 85° C. The absorbance of the control and test samples was measured at 562 nm to monitor the amount of reducing sugar in each sample.

[4] = test system: glucoamylase from Rhizopus sp.; assay: pH effect on hydrolysis of raw corn starch; assay type: biochemical; settings: for Relative Activity: 37° C., 20 min, control at pH 4 = 100
Description: Enzyme solutions of the glucoamylase from Rhizopus sp. Were prepared in various pH buffers having a pH of 3, 4, 5, 6, 7, or 8. Thereafter, 40 μl of the buffered enzyme solution and a stock solution containing Mn^++ were added to 6 samples containing 15 mg raw corn starch to provide a reaction mixture containing 1.0 mM Mn^++. The reaction mixtures were incubated at 37° C. for 20 minutes.

[5] = target: T1, β-amylase from sweet potato (Ipomoea batatas, UniProt P10537); assay: hydrolysis of raw corn starch or soluble starch; assay type: biochemical; settings: for % Relative Activity: pH 5.3, 37° C., 20 min
T1 construct: purchased Sigma A-7005
Description: Each of the buffered enzyme solutions was separately added to 15 mg raw corn starch or 0.6 mg soluble starch, and the reaction mixtures incubated at 37° C. for 20 minutes. The control reaction mixture contained substrate, enzyme, and buffer but no manganese ion. The starch hydrolysis reaction was stopped by combining the reaction mixture with a solution containing DNSA and heating for 30 min at 85° C. The absorbance of the control and test samples was measured at 562 nm to monitor the amount of reducing sugar in each sample.

β-amylase from barley [6] = target: T2, β-amylase from barley (Hordeum vulgare, UniProt P16098); assay: hydrolysis of cooked starches from different botanical sources; assay type: biochemical; settings: pH 5.2, 37° C., 10 min
Description: The control reaction mixture contained enzyme, buffer, and starch but no manganese ion. The starch hydrolysis reaction was stopped by combining the reaction mixture with 3,5 dinitrosalicylic acid (DNSA) and heating for 30 min at 85° C. The absorbance of the control and test samples was measured at 562 nm to monitor the amount of reducing sugar in each sample.

[7] = target: α-amylase from Bacillus licheniformis (Bacillus licheniformis, UniProt P06278); assay: hydrolysis of cooked corn starch varieties; assay type: biochemical; settings: pH 5.2, 37° C., 10 min
Description: The separate reaction mixtures were incubated at 37° C. for 10 minutes. The control reaction mixture contained enzyme, buffer, and starch but no manganese ion. The starch hydrolysis reaction was stopped by combining the reaction mixture with a solution containing DNSA and heating for 30 min at 85° C. The absorbance of the control and test samples was measured at 562 nm to monitor the amount of reducing sugar in each sample.

[8] = target: T3, α-amylase from porcine pancreas (Sus scrofa, UniProt P00690); assay: hydrolysis of cooked dent corn starch; assay type: biochemical; settings: cooked dent corn starch 0.5%, pH 5.2, 37° C., 10 min
T3 construct: the α-amylase from porcine pancreas; from tissue; host or cells: porcine pancreas
T3 sequence (P00690 16-511): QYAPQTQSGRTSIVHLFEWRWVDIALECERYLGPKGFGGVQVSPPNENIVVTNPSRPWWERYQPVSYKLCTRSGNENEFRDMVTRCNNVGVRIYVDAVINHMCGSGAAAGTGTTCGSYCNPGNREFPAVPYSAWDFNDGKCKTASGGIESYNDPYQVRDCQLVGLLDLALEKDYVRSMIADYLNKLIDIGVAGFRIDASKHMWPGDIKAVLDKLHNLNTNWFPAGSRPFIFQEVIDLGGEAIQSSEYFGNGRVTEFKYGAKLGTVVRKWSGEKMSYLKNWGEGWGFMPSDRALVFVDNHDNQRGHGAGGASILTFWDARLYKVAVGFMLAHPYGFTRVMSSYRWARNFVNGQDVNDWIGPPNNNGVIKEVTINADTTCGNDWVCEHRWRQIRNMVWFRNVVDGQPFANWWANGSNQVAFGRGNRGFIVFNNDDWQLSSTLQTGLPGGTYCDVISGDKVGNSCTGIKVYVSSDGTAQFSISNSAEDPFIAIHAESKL

β-amylase from barley [9] = target: T2, β-amylase from barley; assay: hydrolysis of cooked dent corn starch; assay type: biochemical; settings: cooked dent corn starch 0.5%, pH 5.2, 37° C., 10 min
[10] = target: glucoamylase from Aspergillus Niger (Aspergillus niger, UniProt P69328); settings: cooked dent corn starch 0.5%, pH 5.2, 37° C., 10 min
Description: The separate reaction mixtures were incubated at 37° C. for 10 minutes. The control reaction mixtures contained enzyme, buffer, and starch but no manganese ion. The starch hydrolysis reaction was stopped by combining the reaction mixture with a solution containing DNSA and heating for 30 min at 85° C. The absorbance of the control and test samples was measured at 562 nm to monitor the amount of reducing sugar in each sample.

T1 sequence (P10537 whole entry): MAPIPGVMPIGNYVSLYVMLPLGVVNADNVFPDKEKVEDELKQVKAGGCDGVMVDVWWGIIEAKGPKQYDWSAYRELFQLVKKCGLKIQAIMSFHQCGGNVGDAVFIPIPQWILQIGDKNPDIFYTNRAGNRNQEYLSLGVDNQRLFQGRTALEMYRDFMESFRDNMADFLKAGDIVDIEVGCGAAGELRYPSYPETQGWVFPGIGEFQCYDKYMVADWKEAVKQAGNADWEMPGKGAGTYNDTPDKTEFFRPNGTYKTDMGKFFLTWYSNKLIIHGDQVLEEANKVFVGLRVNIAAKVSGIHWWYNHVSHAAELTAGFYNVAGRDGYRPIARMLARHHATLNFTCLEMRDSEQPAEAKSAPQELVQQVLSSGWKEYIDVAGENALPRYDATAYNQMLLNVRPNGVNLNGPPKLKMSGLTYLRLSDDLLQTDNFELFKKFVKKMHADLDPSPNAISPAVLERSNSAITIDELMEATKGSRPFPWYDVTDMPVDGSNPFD
T2 sequence (P16098 whole entry): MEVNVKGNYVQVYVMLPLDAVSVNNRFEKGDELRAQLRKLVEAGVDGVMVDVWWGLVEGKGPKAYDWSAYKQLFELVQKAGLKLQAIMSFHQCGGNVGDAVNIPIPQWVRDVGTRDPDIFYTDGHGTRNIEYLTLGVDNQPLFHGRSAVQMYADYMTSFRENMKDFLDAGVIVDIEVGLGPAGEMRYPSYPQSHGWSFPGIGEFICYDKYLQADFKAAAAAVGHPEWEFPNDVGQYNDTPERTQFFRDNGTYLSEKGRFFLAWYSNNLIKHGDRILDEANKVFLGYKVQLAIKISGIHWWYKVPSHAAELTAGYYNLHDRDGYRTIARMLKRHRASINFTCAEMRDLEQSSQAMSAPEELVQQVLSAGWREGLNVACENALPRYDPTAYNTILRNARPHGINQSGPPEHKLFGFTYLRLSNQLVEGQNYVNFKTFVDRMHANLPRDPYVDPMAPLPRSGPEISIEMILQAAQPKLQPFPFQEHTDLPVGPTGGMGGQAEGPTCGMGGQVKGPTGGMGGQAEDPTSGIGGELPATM
Chain of α-amylase from Bacillus licheniformis (P06278 30-512): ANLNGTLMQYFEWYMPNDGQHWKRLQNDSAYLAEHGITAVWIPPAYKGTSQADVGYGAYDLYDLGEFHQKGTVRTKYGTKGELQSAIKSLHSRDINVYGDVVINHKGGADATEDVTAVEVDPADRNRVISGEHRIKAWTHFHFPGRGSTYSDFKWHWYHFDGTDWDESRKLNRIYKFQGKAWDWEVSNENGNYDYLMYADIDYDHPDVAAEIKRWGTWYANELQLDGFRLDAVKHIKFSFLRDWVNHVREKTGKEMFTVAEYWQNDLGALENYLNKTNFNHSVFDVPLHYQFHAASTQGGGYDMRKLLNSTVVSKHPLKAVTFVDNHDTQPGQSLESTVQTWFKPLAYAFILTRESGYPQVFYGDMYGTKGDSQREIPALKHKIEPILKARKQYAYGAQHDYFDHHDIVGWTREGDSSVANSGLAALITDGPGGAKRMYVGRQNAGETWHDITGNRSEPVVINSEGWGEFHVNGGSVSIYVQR
Chain of glucoamylase from Aspergillus Niger (P69328 25-640): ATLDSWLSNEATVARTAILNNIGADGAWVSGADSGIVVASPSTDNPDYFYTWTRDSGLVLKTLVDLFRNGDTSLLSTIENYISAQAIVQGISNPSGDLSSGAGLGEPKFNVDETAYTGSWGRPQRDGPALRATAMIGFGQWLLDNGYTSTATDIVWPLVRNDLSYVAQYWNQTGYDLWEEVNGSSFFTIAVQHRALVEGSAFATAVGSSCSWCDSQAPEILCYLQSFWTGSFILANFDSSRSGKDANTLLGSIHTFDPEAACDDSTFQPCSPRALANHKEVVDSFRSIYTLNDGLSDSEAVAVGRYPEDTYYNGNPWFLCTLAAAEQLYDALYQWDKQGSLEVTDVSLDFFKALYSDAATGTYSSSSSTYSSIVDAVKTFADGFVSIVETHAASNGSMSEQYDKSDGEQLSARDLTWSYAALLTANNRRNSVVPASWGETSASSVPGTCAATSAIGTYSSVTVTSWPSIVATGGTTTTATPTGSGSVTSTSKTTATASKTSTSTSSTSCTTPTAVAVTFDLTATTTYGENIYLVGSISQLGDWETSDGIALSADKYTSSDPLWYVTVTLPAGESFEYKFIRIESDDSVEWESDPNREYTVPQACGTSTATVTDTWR
Chain of α-amylase from Bacillus amyloliquefaciens (P00692 32-514): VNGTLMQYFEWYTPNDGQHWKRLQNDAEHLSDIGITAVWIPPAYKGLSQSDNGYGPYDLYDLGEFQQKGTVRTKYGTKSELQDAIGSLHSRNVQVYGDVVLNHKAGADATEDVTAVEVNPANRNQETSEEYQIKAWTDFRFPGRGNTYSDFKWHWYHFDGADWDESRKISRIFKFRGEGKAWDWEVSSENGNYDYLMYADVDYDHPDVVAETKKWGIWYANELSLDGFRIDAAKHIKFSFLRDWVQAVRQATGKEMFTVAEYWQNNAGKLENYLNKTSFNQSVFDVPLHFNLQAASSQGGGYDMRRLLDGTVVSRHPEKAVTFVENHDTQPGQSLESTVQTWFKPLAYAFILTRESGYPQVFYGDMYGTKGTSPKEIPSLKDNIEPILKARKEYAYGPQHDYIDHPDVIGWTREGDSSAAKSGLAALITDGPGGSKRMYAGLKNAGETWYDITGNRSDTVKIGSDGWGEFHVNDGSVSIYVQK

SMILES: [Mn+2] [Mn^++, manganese ions]
- Relative Activity ([1]; 0.01 mM Mn^++): 105.0%
- Relative Activity ([1]; 0.1 mM Mn^++): 119.2%
- Relative Activity ([1]; 1 mM Mn^++): 133.5%
- Relative Activity ([1]; 10 mM Mn^++): 162.6%
- effect on hydrolysis of raw corn starch (in words) ([1]; summary of Table 3): enhances the hydrolysis of raw corn starch
- Relative Activity ([2]; 0.01 mM Mn^++): 106.6%
- Relative Activity ([2]; 0.1 mM Mn^++): 125.5%
- Relative Activity ([2]; 1 mM Mn^++): 136.7%
- Relative Activity ([2]; 10 mM Mn^++): 155.6%
- effect on hydrolysis of raw corn starch (in words) ([2]; summary of Table 3): enhances the hydrolysis of raw corn starch
- Relative Activity ([3]; 0.01 mM Mn^++): 101.5%
- Relative Activity ([3]; 0.1 mM Mn^++): 115.7%
- Relative Activity ([3]; 1 mM Mn^++): 119.1%
- Relative Activity ([3]; 10 mM Mn^++): 111.7%
- effect on hydrolysis of raw corn starch (in words) ([3]; summary of Table 4): enhances the hydrolysis of raw corn starch
- pH of greatest Mn^++-induced activation ([4]; 1.0 mM Mn^++, pH 3-8 tested): 5.0
- Relative Activity ([4]; pH 3, 1.0 mM Mn^++): 98%
- Relative Activity ([4]; pH 4, 1.0 mM Mn^++): 146.7%
- Relative Activity ([4]; pH 5, 1.0 mM Mn^++): 148.6%
- Relative Activity ([4]; pH 6, 1.0 mM Mn^++): 127.8%
- Relative Activity ([4]; pH 7, 1.0 mM Mn^++): 103.1%
- Relative Activity ([4]; pH 8, 1.0 mM Mn^++): 44.3%
- % Relative Activity ([5]; 0.01 mM Mn^++, raw corn starch): 113.9%
- % Relative Activity ([5]; 0.01 mM Mn^++, soluble starch): 108.6%
- % Relative Activity ([5]; 0.1 mM Mn^++, raw corn starch): 106.6%
- % Relative Activity ([5]; 0.1 mM Mn^++, soluble starch): 127.1%
- % Relative Activity ([5]; 1 mM Mn^++, raw corn starch): 136.5%
- % Relative Activity ([5]; 1 mM Mn^++, soluble starch): 146.6%
- % Relative Activity ([5]; 10 mM Mn^++, raw corn starch): 160.6%
- % Relative Activity ([5]; 10 mM Mn^++, soluble starch): 176.3%
- effect on hydrolysis of starch (in words) ([5]; raw corn starch and soluble starch): enhances the hydrolysis of both raw corn starch and soluble starch
- Relative Activity (β-amylase from barley [6]; 0.01 mM Mn^++, cooked barley starch 0.5%): 115.2%
- Relative Activity (β-amylase from barley [6]; 0.01 mM Mn^++, cooked pea starch 0.5%): 108.1%
- Relative Activity (β-amylase from barley [6]; 0.01 mM Mn^++, cooked potato starch 0.5%): 109.5%
- Relative Activity (β-amylase from barley [6]; 0.01 mM Mn^++, cooked rice starch 0.5%): 107.8%
- Relative Activity (β-amylase from barley [6]; 0.01 mM Mn^++, cooked soluble potato starch 0.5%): 117.4%
- Relative Activity (β-amylase from barley [6]; 0.01 mM Mn^++, cooked tapioca starch 0.5%): 111.3%
- Relative Activity (β-amylase from barley [6]; 0.01 mM Mn^++, cooked wheat starch 0.5%): 120.2%
- Relative Activity (β-amylase from barley [6]; 0.1 mM Mn^++, cooked barley starch 0.5%): 121.1%
- Relative Activity (β-amylase from barley [6]; 0.1 mM Mn^++, cooked pea starch 0.5%): 122.3%
- Relative Activity (β-amylase from barley [6]; 0.1 mM Mn^++, cooked potato starch 0.5%): 117.5%
- Relative Activity (β-amylase from barley [6]; 0.1 mM Mn^++, cooked rice starch 0.5%): 123.9%
- Relative Activity (β-amylase from barley [6]; 0.1 mM Mn^++, cooked soluble potato starch 0.5%): 136.0%
- Relative Activity (β-amylase from barley [6]; 0.1 mM Mn^++, cooked tapioca starch 0.5%): 122.1%
- Relative Activity (β-amylase from barley [6]; 0.1 mM Mn^++, cooked wheat starch 0.5%): 141.9%
- Relative Activity (β-amylase from barley [6]; 1 mM Mn^++, cooked barley starch 0.5%): 154.0%
- Relative Activity (β-amylase from barley [6]; 1 mM Mn^++, cooked pea starch 0.5%): 139.2%
- Relative Activity (β-amylase from barley [6]; 1 mM Mn^++, cooked potato starch 0.5%): 135.4%
- Relative Activity (β-amylase from barley [6]; 1 mM Mn^++, cooked rice starch 0.5%): 138.1%
- Relative Activity (β-amylase from barley [6]; 1 mM Mn^++, cooked soluble potato starch 0.5%): 154.1%
- Relative Activity (β-amylase from barley [6]; 1 mM Mn^++, cooked tapioca starch 0.5%): 135.6%
- Relative Activity (β-amylase from barley [6]; 1 mM Mn^++, cooked wheat starch 0.5%): 151.9%
- Relative Activity (β-amylase from barley [6]; 10 mM Mn^++, cooked barley starch 0.5%): 197.5%
- Relative Activity (β-amylase from barley [6]; 10 mM Mn^++, cooked pea starch 0.5%): 253.4%
- Relative Activity (β-amylase from barley [6]; 10 mM Mn^++, cooked potato starch 0.5%): 175.1%
- Relative Activity (β-amylase from barley [6]; 10 mM Mn^++, cooked rice starch 0.5%): 173.4%
- Relative Activity (β-amylase from barley [6]; 10 mM Mn^++, cooked soluble potato starch 0.5%): 165.6%
- Relative Activity (β-amylase from barley [6]; 10 mM Mn^++, cooked tapioca starch 0.5%): 180.5%
- Relative Activity (β-amylase from barley [6]; 10 mM Mn^++, cooked wheat starch 0.5%): 221.1%
- Relative Activity ([7]; 0.01 mM Mn^++, cooked high-amylose V corn starch 0.5%): 116.5%
- Relative Activity ([7]; 0.01 mM Mn^++, cooked soluble corn starch 0.5%): 118.3%
- Relative Activity ([7]; 0.01 mM Mn^++, cooked waxy corn starch 0.5%): 118.3%
- Relative Activity ([7]; 0.1 mM Mn^++, cooked dent corn starch 0.5%): 124.4%
- Relative Activity ([7]; 0.1 mM Mn^++, cooked high-amylose V corn starch 0.5%): 135.5%
- Relative Activity ([7]; 0.1 mM Mn^++, cooked soluble corn starch 0.5%): 128.1%
- Relative Activity ([7]; 0.1 mM Mn^++, cooked waxy corn starch 0.5%): 126.9%
- Relative Activity ([7]; 1 mM Mn^++, cooked dent corn starch 0.5%): 128.7%
- Relative Activity ([7]; 1 mM Mn^++, cooked soluble corn starch 0.5%): 135.8%
- Relative Activity ([7]; 10 mM Mn^++, cooked dent corn starch 0.5%): 147.8%
- Relative Activity ([7]; 10 mM Mn^++, cooked high-amylose V corn starch 0.5%): 160.1%
- Relative Activity ([7]; 10 mM Mn^++, cooked soluble corn starch 0.5%): 162.7%
- Relative Activity ([7]; 10 mM Mn^++, cooked waxy corn starch 0.5%): 155.8%
- Relative Activity ([8]; 0.01 mM Mn^++): 114.5%
- Relative Activity ([8]; 0.1 mM Mn^++): 132.4%
- Relative Activity ([8]; 1 mM Mn^++): 144.2%
- Relative Activity ([8]; 10 mM Mn^++): 177.7%
- Relative Activity (β-amylase from barley [9]; 0.01 mM Mn^++): 123.5%
- Relative Activity (β-amylase from barley [9]; 0.1 mM Mn^++): 135.3%
- Relative Activity (β-amylase from barley [9]; 1 mM Mn^++): 149.8%
- Relative Activity (β-amylase from barley [9]; 10 mM Mn^++): 210.1%
- Relative Activity ([10]; 0.01 mM Mn^++): 113.3%
- Relative Activity ([10]; 0.1 mM Mn^++): 126.1%
- Relative Activity ([10]; 1 mM Mn^++): 148.4%
- Relative Activity ([10]; 10 mM Mn^++): 186.9%
